Entries after “also recorded” stand apart in the source; their conditions may differ.
Legend:
[1] = PD study: compound concentration in mouse liver; type: in vivo, C57BL/6 mice; details: male, C57BL/6, mouse, 50 mg/kg, 50 mpk oral
Experimental: 9-10 week old male C57BL/6 mice were dosed orally with 50 mg/kg of vehicle or compound formulated in 5% w/v tween 80 and 0.5% methyl cellulose. At indicated time points (3 and 6 hours or or 4 and 8 hours post-dosing as shown in the results below), whole blood was collected, animal was sacrificed and liver was collected. Blood samples were transferred to vials containing 4 μL of 10% w/v EDTA, centrifuged at 6000 rpm for 8 in below 10° C. to obtain plasma. Samples were frozen and later processed for HMOX1 protein levels as indicated below: […]

HbSS Townes sickle mice = assay: F-cells (HbF-containing red blood cells) in HbSS Townes sickle mice; type: in vivo
From the text: Blood smears were made using heparinized whole blood for F-cells staining. Stained F-cells and total red blood cells were counted on the blood smears in four fields; mean=77 red blood cells/field. F-cells are expressed as a percentage of total red blood cells. Values are means+SD. One-Way ANOVA with Dunnett's Multiple comparison to Vehicle **p≤0.01, ***p≤0.001, ****p≤0.0001
Dosing Scheme of HMOX Inducers to HbSS Townes Sickle Mice
HbSS Townes sickle mice were oral gavaged once daily with Vehicle or the compound of Example 17 listed below for 8 days. To minimize experimental inconsistency, fresh formulation was prepared every day and vortexed prior to drawing test article into syringe for each dosing, and dosing was performed by the same individual throughout the day. The last-day dose was administered by oral gavage 4 hours prior to hemin infusion described below. • 1. […]
F-cells were stained on whole blood smears by the Kleihauer-Betke method using a fetal cell stain kit (Simmler) according to the manufacturer's instructions. F-cells and total erythrocytes were counted in 4 separate microscopic fields at 100× magnification for each mouse. The F-cells were expressed as a percentage of total erythrocytes (i.e., red blood cells). […]

VCAM-1 = assay: Gene expression (VCAM-1) in primary human endothelial cells stimulated with TNFa; type: cell-based; details: HPAEC
Experimental: Example 150. Gene Expression in Primary Human Endothelial Cells
Inflammatory conditions in endothelial cells increase expression of adhesion molecules, such as VCAM-1, ICAM-1 and E-selectin through NF-kB signaling. HMOX1−/− endothelial cells show increased expression of VCAM-1 in response to TNF stimulation, as compared to HMOX+/+endothelial cells. See Seldon et al., J Immunol Dec. 1, 2007, 179 (11) 7840-7851.
Primary human pulmonary artery endothelial cells (HPAEC) (Lonza # CC-2530) were seeded in 12-well plates (TrueLine # TR5001) at 200 k cells per well and placed at 37° C. in 5% CO2. 18-24 hr post seeding, cells were treated with the compound of Example 17 via media change. 24 hr post treatment with the compound, cells were treated with 10 ng/mL TNFa (Invitrogen # PHC3015 in H2O) alone or with the compound of Example 17. […] 20 ng cDNA was mixed with water, iQ™ SYBR® Green Supermix (BioRad #170-8886), and 300 nM primer (IDT # NM_001078) for a total 10 ul reaction and loaded into 384-well white qPCR plates and subsequently analyzed using BioRad CFX384. […] To calculate fold change, the ΔCt on a per sample basis was calculated as Ct (Gene of interest)−Ct (Average of reference genes). The ΔΔCt was then calculated as ΔCt (experimental sample)−Average ΔCt (control group). Fold change was calculated as 2^−ΔΔCT.

- concentration at 4 h ([1]; 4 hours (Study 702), read-out: Liver Conc uM (4 h)): 11 µM
- concentration at 8 h ([1]; 8 hours (Study 702), read-out: Liver Conc uM (8 h)): 4.9 µM
SMILES: Cn1c(Nc2nc3ccccc3o2)nc2cc(C(=O)NCCOCCO)ccc21 [Example 17, 2-(benzo[d]oxazol-2-ylamino)-N-(2-(2-hydroxyethoxy)ethyl)-1-methyl-1H-benzo[d]imidazole-5-carboxamide]
- percent F-cells compared with vehicle (in words) (HbSS Townes sickle mice; 10, 25, 50 mg/kg PO once daily for 8 days): significantly increased; also recorded: more than doubled; also recorded: did not appear to be dose responsive; also recorded: increase
- percent F-cells (of total red blood cells) (HbSS Townes sickle mice; all doses tested (10, 25, 50 mg/kg PO, 8 days)): 55-70%
- TNF-α mediated endothelial cell activation / VCAM-1 expression (in words) (VCAM-1; 24 hr pre-treatment, 10 ng/mL TNFa 4 hours): reduced this TNF-α mediated endothelial cell activation
- toxicity by visual inspection of cells (VCAM-1; after 4 hours of TNFa treatment): no toxicity

Source: US10766888B1, “HMOX1 inducers” (Mitobridge Inc., priority 2019, dated 2020)
